Source: patent US5804410A, “Nucleic acid sequence encoding trypsin-like enzyme and process for producing the enzyme” (Teijin Limited, priority 1994, dated 1998)
Entries after “also recorded” stand apart in the source; their conditions may differ. Read-outs that look alike come from different tables or passages of the source. *1 amine or outer side, *2 acyl side, *3 side chain or, on linkers, in order; H or OH if unused. Where a SMILES comes first, the peptide text is derived from it. The star is where a group is joined. AMC = Cc1cc(=O)oc2cc(N*)ccc12; Suc = O=C(CCC(=O)[*:2])[*:1]; Boc = CC(C)(C)OC(=O)*; CO = O=C([*:1])[*:2]

Assays:
[1] = molecular target: T1, human neutrophile elastase (Homo sapiens, UniProt P08246); experiment: Substrate specificity, synthetic MCA substrates; assay type: biochemical
T1 sequence (P08246 30-267): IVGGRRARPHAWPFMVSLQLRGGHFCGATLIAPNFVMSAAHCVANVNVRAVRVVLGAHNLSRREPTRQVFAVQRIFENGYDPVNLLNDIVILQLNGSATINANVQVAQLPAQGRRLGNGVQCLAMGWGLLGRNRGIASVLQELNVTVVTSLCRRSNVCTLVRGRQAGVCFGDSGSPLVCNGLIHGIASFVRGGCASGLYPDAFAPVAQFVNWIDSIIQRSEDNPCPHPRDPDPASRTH

trypsin-like enzyme [2] = molecular target: T2, trypsin-like enzyme (Homo sapiens, UniProt O60235); experiment: Substrate specificity, synthetic MCA substrates (assay method of trypsin activity); assay type: biochemical; details: pH 8.6, 0.1M Tris-HCl; activity on Boc-Phe-Ser-Arg-MCA taken to be 100%
T2 construct: from tissue; host or cells: cough phlegm (sputum) of patients with chronic disease of the respiratory tract

[3] = test system: rat mast cell-derived tryptase; experiment: Effect of protease inhibitors on enzymatic activity; assay type: biochemical
trypsin-like enzyme [4] = molecular target: T2, trypsin-like enzyme; experiment: Digestion of natural substrates detected by SDS-polyacrylamide gel electrophoresis; assay type: biochemical
trypsin-like enzyme [5] = molecular target: T2, trypsin-like enzyme; experiment: Effect of protease inhibitors on enzymatic activity; assay type: biochemical; details: for inhibition at 10 µM: read-out: Inhibition (%) Trypsin-like protease (human)
[6] = test system: rat mast cell-derived tryptase; experiment: Substrate specificity, synthetic MCA substrates; assay type: biochemical; details: activity on Suc-Phe-Ser-Arg-MCA taken to be 100%
[7] = molecular target: T3, human-derived neutrophile elastase (Homo sapiens, UniProt P08246); experiment: Effect of protease inhibitors on enzymatic activity; assay type: biochemical; details: for inhibition at 10 µM: read-out: Inhibition (%) Neutrophile elastase (human)
T3 sequence (P08246 30-267): T1 sequence (P08246 30-267)

[8] = molecular target: Suc-Gly-Pro-Leu-Gly-Pro-MCA
[9] = molecular target: trypsin-like enzyme isolated from cough phlegm of a patient suffering from a chronic respiratory apparatus disease (human)
[10] = molecular target: rat mast cell-derived tryptase (rat) (UniProt P27435)
[11] = pH 8.6, activity on Suc-Ala-Pro-Ala-MCA taken to be 100%
[12] = Example 5: inhibitors 10 μM, PMSF 1 mM

T2 sequence (O60235 187-418): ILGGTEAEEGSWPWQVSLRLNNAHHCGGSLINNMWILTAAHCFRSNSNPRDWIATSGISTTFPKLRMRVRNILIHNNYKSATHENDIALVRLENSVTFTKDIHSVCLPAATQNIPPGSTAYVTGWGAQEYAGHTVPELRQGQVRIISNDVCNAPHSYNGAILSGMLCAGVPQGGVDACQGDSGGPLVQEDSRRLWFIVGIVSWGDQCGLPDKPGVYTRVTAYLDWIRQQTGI
Chain of trypsin-like enzyme isolated from cough phlegm of a patient suffering from a chronic respiratory apparatus disease (O60235 187-418 limits assumed): as the sequence (O60235 187-418) above

Cc1cc(=O)oc2cc(NC(=O)[C@@H](N)CC(C)C)ccc12 [Leu-MCA]
Substrate digestion ratio (%) Neutrophile elastase pH 8.6 [1, 11]: 0.2%
Substrate digestion ratio (%) Trypsin-like enzyme pH 8.6 (trypsin-like enzyme [2]): 0%

Cc1cc(=O)oc2cc(NC(=O)[C@@H]3CCCN3C(=O)CNC(=O)[C@H](CC(C)C)NC(=O)[C@@H]3CCCN3C(=O)CNC(=O)CCC(=O)O)ccc12 [Suc-Gly-Pro-Leu-Gly-Pro-MCA] (Suc-GPLGP-{AMC})
Substrate digestion ratio (%) Neutrophile elastase pH 8.6 [1, 11]: 0%
Substrate digestion ratio (%) Trypsin-like enzyme pH 8.6 (trypsin-like enzyme [2]): 0%

α-1-antitrypsin: a blood protease inhibitor; also used as natural substrate
Inhibition (%) Tryptase (derived from rat mast cell) ([3]; 10 µM): 66.3%
Digestion of natural substrate by trypsin-like enzyme (trypsin-like enzyme [4]): does not digest
Digestion of natural substrate by trypsin-like enzyme (trypsin-like enzyme [4]; listed as al-antitrypsin): not digested
Inhibition of trypsin-like enzyme (in words) (trypsin-like enzyme [5]; [12]): inhibited
Inhibition (%) Trypsin-like protease (human) (trypsin-like enzyme [5]; inhibitor 10 μM): 23.5%

vasoactive intestinal peptide [VIP]
Digestion of natural substrate by trypsin-like enzyme (trypsin-like enzyme [4]): specifically digested; also recorded: digests

Cc1cc(=O)oc2cc(NC(=O)[C@H](CCCNC(=N)N)NC(=O)[C@H](C)NC(=O)[C@H](CCC(N)=O)NC(=O)OC(C)(C)C)ccc12 [Boc-Gln-Ala-Arg-MCA] (Boc-Gln-Ala-Arg-{AMC})
Substrate digestion ratio (%) Neutrophile elastase pH 8.6 [1, 11]: 0.3%
Substrate digestion ratio (%) Trypsin-like enzyme pH 8.6 (trypsin-like enzyme [2]): 52.2%

Cc1cc(=O)oc2cc(NC(=O)[C@H](CCCNC(=N)N)NC(=O)[C@@H]3CCCN3C(=O)[C@@H](NC(=O)OC(C)(C)C)C(C)C)ccc12 [Boc-Val-Pro-Arg-MCA] (Boc-Val-Pro-Arg-{AMC})
Substrate digestion ratio (%) Rat mast cell Tryptase pH 8.6 [6]: 50.6%
Substrate digestion ratio (%) Neutrophile elastase pH 8.6 [1, 11]: 0.2%
Substrate digestion ratio (%) Trypsin-like enzyme pH 8.6 (trypsin-like enzyme [2]): 74.6%

Cc1cc(=O)oc2cc(NC(=O)[C@H](CCCNC(=N)N)NC(=O)CNC(=O)[C@H](CCC(N)=O)NC(=O)OC(C)(C)C)ccc12 [Boc-Gln-Gly-Arg-MCA] (Boc-Gln-Gly-Arg-{AMC})
Substrate digestion ratio (%) Rat mast cell Tryptase pH 8.6 [6]: 4.6%
Substrate digestion ratio (%) Neutrophile elastase pH 8.6 [1, 11]: 0.2%
Substrate digestion ratio (%) Trypsin-like enzyme pH 8.6 (trypsin-like enzyme [2]): 13.8%

substance P
Digestion of natural substrate by trypsin-like enzyme (trypsin-like enzyme [4]): not digested; also recorded: does not digest

elastinol
Inhibition (%) Tryptase (derived from rat mast cell) ([3]; inhibitor 10 μM): 53.0%
Inhibition (%) Neutrophile elastase (human) ([7]; inhibitor 10 μM): 0%
Inhibition of trypsin-like enzyme (in words) (trypsin-like enzyme [5]; [12]): not inhibited
Inhibition (%) Trypsin-like protease (human) (trypsin-like enzyme [5]; inhibitor 10 μM): 0%

CC(C)C[C@@H](N)[C@H](O)C(=O)N[C@H](C(=O)N[C@H](C(=O)N[C@@H](CC(=O)O)C(=O)O)C(C)C)C(C)C [Amastatin, amastatin]
Inhibition (%) Tryptase (derived from rat mast cell) ([3]; inhibitor 10 μM): 6.6%
inhibition at 10 µM ([7]; inhibitor 10 μM): 67.6%
Inhibition of trypsin-like enzyme (in words) (trypsin-like enzyme [5]; [12]): not inhibited
inhibition at 10 µM (trypsin-like enzyme [5]; inhibitor 10 μM): 0%

Cc1cc(=O)oc2cc(NC(=O)[C@H](CCCNC(=N)N)NC(=O)[C@H](CO)NC(=O)[C@H](Cc3ccccc3)NC(=O)OC(C)(C)C)ccc12 [Boc-Phe-Ser-Arg-MCA] (Boc-Phe-Ser-Arg-{AMC})
Substrate digestion ratio (%) Rat mast cell Tryptase pH 8.6 [6]: 100%
Substrate digestion ratio (%) Neutrophile elastase pH 8.6 [1, 11]: 0.4%
Substrate digestion ratio (%) Trypsin-like enzyme pH 8.6 (trypsin-like enzyme [2]): 100%

fibrinogen
Digestion of natural substrate by trypsin-like enzyme (trypsin-like enzyme [4]): specifically digested; also recorded: digests

rat mast cell-derived tryptase (from UniProt P27435) (enzyme)
Substrate digestion ratio (%) (Boc-Val-Pro-Arg-MCA): 50.6%
Substrate digestion ratio (%) (Suc-Ala-Ala-Pro-Phe-MCA): 2%
Substrate digestion ratio (%) (Boc-Val-Leu-Lys-MCA): 6.1%
Substrate digestion ratio (%) (Boc-Phe-Ser-Arg-MCA): 100%
Substrate digestion ratio (%) (Boc-Gln-Gly-Arg-MCA): 4.6%
Substrate digestion ratio (%) (Boc-Ile-Gln-Gly-Arg-MCA): 149%

trypsin-like enzyme isolated from cough phlegm of a patient suffering from a chronic respiratory apparatus disease
Substrate digestion ratio (%) (Boc-Gln-Ala-Arg-MCA): 52.2%
Substrate digestion ratio (%) (Boc-Val-Pro-Arg-MCA): 74.6%
Substrate digestion ratio (%) (Suc-Ala-Pro-Ala-MCA): 0%
Substrate digestion ratio (%) (Suc-Ala-Ala-Pro-Phe-MCA): 0%
Substrate digestion ratio (%) (Boc-Val-Leu-Lys-MCA): 3.9%
Substrate digestion ratio (%) (Boc-Phe-Ser-Arg-MCA): 100%
Substrate digestion ratio (%) [8]: 0%
Substrate digestion ratio (%) (Boc-Gln-Gly-Arg-MCA): 13.8%
Substrate digestion ratio (%) (Boc-Ile-Gln-Gly-Arg-MCA): 13.1%

Cc1cc(=O)oc2cc(NC(=O)[C@H](C)NC(=O)[C@@H]3CCCN3C(=O)[C@H](C)NC(=O)CCC(=O)O)ccc12 [Suc-Ala-Pro-Ala-MCA] (Suc-Ala-Pro-Ala-{AMC})
Substrate digestion ratio (%) Neutrophile elastase pH 8.6 [1, 11]: 100%
Substrate digestion ratio (%) Trypsin-like enzyme pH 8.6 (trypsin-like enzyme [2]): 0%

human neutrophile elastase (from UniProt P08246) (enzyme)
Substrate digestion ratio (%) (Boc-Gln-Ala-Arg-MCA): 0.3%
Substrate digestion ratio (%) (Boc-Val-Pro-Arg-MCA): 0.2%
Substrate digestion ratio (%) (Suc-Ala-Pro-Ala-MCA): 100%
Substrate digestion ratio (%) (Suc-Ala-Ala-Pro-Phe-MCA): 0.1%
Substrate digestion ratio (%) (Boc-Val-Leu-Lys-MCA): 0.1%
Substrate digestion ratio (%) (Boc-Phe-Ser-Arg-MCA): 0.4%
Substrate digestion ratio (%) [8]: 0%
Substrate digestion ratio (%) (Boc-Gln-Gly-Arg-MCA): 0.2%
Substrate digestion ratio (%) (Boc-Ile-Gln-Gly-Arg-MCA): 0.3%

Cc1cc(=O)oc2cc(NC(=O)[C@H](CCCCN)NC(=O)[C@H](CC(C)C)NC(=O)[C@@H](NC(=O)OC(C)(C)C)C(C)C)ccc12 [Boc-Val-Leu-Lys-MCA] (Boc-Val-Leu-Lys-{AMC})
Substrate digestion ratio (%) Rat mast cell Tryptase pH 8.6 [6]: 6.1%
Substrate digestion ratio (%) Neutrophile elastase pH 8.6 [1, 11]: 0.1%
Substrate digestion ratio (%) Trypsin-like enzyme pH 8.6 (trypsin-like enzyme [2]): 3.9%

CC(C)C[C@H](NC(=O)[C@@H](O)[C@H](N)Cc1ccccc1)C(=O)O [Bestatin, bestatin]
Inhibition (%) Tryptase (derived from rat mast cell) ([3]; inhibitor 10 μM): 23.4%
inhibition at 10 µM ([7]; inhibitor 10 μM): 15.2%
Inhibition of trypsin-like enzyme (in words) (trypsin-like enzyme [5]; [12]): not inhibited
inhibition at 10 µM (trypsin-like enzyme [5]; inhibitor 10 μM): 0%

CC(C)[C@H](NC(=O)[C@H](CCCNC(=N)N)NC(=O)N[C@@H](Cc1ccccc1)C(=O)O)C(=O)N[C@H](C=O)CCCNC(=N)N [Antipain, antipain] ({Phe-CO}-Arg-Val-Arg-aldehyde)
Inhibition (%) Tryptase (derived from rat mast cell) ([3]; 10 µM): 98.2%
inhibition at 10 µM [7]: 11.1%
Inhibition of trypsin-like enzyme (in words) (trypsin-like enzyme [5]): inhibited
inhibition at 10 µM (trypsin-like enzyme [5]): 78.1%

Cc1cc(=O)oc2cc(NC(=O)[C@H](Cc3ccccc3)NC(=O)[C@@H]3CCCN3C(=O)[C@H](C)NC(=O)[C@H](C)NC(=O)CCC(=O)O)ccc12 [Suc-Ala-Ala-Pro-Phe-MCA] (Suc-AAPF-{AMC})
Substrate digestion ratio (%) Rat mast cell Tryptase pH 8.6 [6]: 2.0%
Substrate digestion ratio (%) Neutrophile elastase pH 8.6 [1]: 0.1%
Substrate digestion ratio (%) Trypsin-like enzyme pH 8.6 (trypsin-like enzyme [2]): 0%

CC(=O)N[C@@H](CC(C)C)C(=O)N[C@@H](CC(C)C)C(=O)N[C@H](C=O)CCCNC(=N)N [Leupeptin, leupeptin]
Inhibition (%) Tryptase (derived from rat mast cell) ([3]; 10 µM): 100%
inhibition at 10 µM [7]: 0%
Inhibition of trypsin-like enzyme (in words) (trypsin-like enzyme [5]): inhibited
inhibition at 10 µM (trypsin-like enzyme [5]): 82.5%

α1-antitrypsin
Inhibition (%) [9]: 23.5%
Inhibition (%) [10]: 66.3%

CC[C@H](C)[C@H](NC(=O)OC(C)(C)C)C(=O)N[C@@H](CCC(N)=O)C(=O)NCC(=O)N[C@@H](CCCNC(=N)N)C(=O)Nc1ccc2c(C)cc(=O)oc2c1 [Boc-Ile-Gln-Gly-Arg-MCA] (Boc-IQGR-{AMC})
Substrate digestion ratio (%) Rat mast cell Tryptase pH 8.6 [6]: 149.0%
Substrate digestion ratio (%) Neutrophile elastase pH 8.6 [1, 11]: 0.3%
Substrate digestion ratio (%) Trypsin-like enzyme pH 8.6 (trypsin-like enzyme [2]): 13.1%

O=S(=O)(F)Cc1ccccc1 [PMSF, phenylmethylsulfonyl fluoride]
Inhibition (%) Neutrophile elastase (human) ([7]; 1000 µM): 93.6%
Inhibition of trypsin-like enzyme (in words) (trypsin-like enzyme [5]): inhibited
Inhibition (%) Trypsin-like protease (human) (trypsin-like enzyme [5]; 1000 µM): 100%
